Reference: patent EP0428132A1, “Pradimicin derivatives” (Bristol-Myers Squibb Company, priority 1989, dated 1991)
In brackets after ≈: the same amount, converted by molar mass.

How the values were obtained:
[1] = physchem
Description: The sample (3 ∼ 3.5 mg) was suspended in 1 ml of PBS(-) or PBS(+), sonicated at 30°C for 10 minutes, and allowed to stand at room temperature for 2 hours. The resulting solution or suspension was centrifuged at 12,000 rpm for 10 minutes. The supernatant (pH 6.7 ∼ 7.2) was diluted (5 x or 50 x) with 0.01N NaOH (pH ca. 11.5) and its UV absorption at 500 nm was measured. The solubility was assessed by the absorption coefficient value with reference to the standard. […] The zwitterionic form sample was used for the solubility test as it is. The hydrochloride salt sample (3 mg) was dissolved in 3 ml of distilled water and neutralized with 0.01N NaOH, and then the solution was lyophilized to give a test sample.
Dulbecco's phosphate buffered saline (PBS) solution was used. Preparation of PBS(-) solution: One PBS(-) tablet (Flow Laboratories, Cat. No. 28-103-05) was dissolved in 100 ml distilled water, and the solution was autoclaved for 10 minutes at 115°C. This solution contains 0.2 g/L of KCl, 0.2 g/L of KH₂PO₄, 8 g/L of NaCl, and 1.15 g/L of Na₂HPO₄. Preparation of PBS(+) solution: One PBS(-) tablet was dissolved in 80 ml distilled water; 10 mg of CaCl₂ was dissolved in 10 ml distilled water; 10 mg of MgCl₂, 6H₂O was dissolved in 10 ml distilled water. These solutions were separately autoclaved, as described above, and mixed when cooled.

[2] = system: FA21436; assay: In vitro antifungal activity, serial agar dilution method (Table 1); format: cell-based, Asoergukkys flavus; details: for MIC: 40 h, pH 7, read-out: MIC, Asoergukkys flavus FA21436
Description: (§1) The inoculum size was adjusted to 10⁶ cells/ml, and a volume of approximately 0.003 ml of fungal suspension was applied to the surface of the antibiotic containing agar plates with a multiinoculator. After incubation, the lowest concentration of antibiotic causing virtually complete inhibition of fungal growth was determined as the minimum inhibitory concentration (MIC). Table 1. [table]

[3] = system: Candida albicans A9540; assay: Intravenous Candida albicans infection mouse model, Table 2 part A; format: in vivo; details: drug administered once just after infection, 20 days after fungal challenge, method of Litchfield and Wilcoxon, male ICR mice
Description: Several compounds were also evaluated in an intravenous Candida albicans […] infection mouse model. The test organism was suspended in saline approximately 10 times the median lethal dose of the fungus (10⁶ cells/mouse) were used to infect intravenously male ICR mice weighing 20 to 24 g. Groups of five mice at each dose level were given the test compounds intravenously or intramuscularly. The 50% protective dose (PD₅₀) was calculated from survival rates recorded 20 or 21 days after the fungal challenge. Control animals died between 7 to 15 days.

[4] = system: Mucor spinosus IFO5317; assay: In vitro antifungal activity, serial agar dilution method (Table 1); format: cell-based; details: Sabouraud dextrose agar (pH 7.0), 28°C for 40 hours; for MIC: Mucor spinosus, IFO5317; for Partial Inhibition, Mucor spinosus IFO5317: value in parentheses = Partial Inhibition
Description: as §1

[5] = system: Blastomyces dermatidis D40; assay: as above; format: cell-based; details: for MIC: Blastomyces, D40, 40 h, pH 7, read-out: MIC, Blastomyces dermatidis D40; for Partial Inhibition, Blastomyces dermatidis D40: value in parentheses = Partial Inhibition, Sabouraud dextrose agar (pH 7.0), 28°C for 40 hours
Description: as §1

[6] = system: Trichophyton mentagrophytes D155; assay: as above; format: cell-based; details: Trichophyton mentagrophytes, D155; Sabouraud dextrose agar (pH 7.0); 28°C for 40 hours
Description: as §1

[7] = system: Trichophyton mentagrophytes #4329; assay: as above; format: cell-based; details: Trichophyton mentagrophytes; Sabouraud dextrose agar (pH 7.0); 28°C for 40 hours
Description: as §1

[8] = system: Sprotricosis schenckii IFO8158; assay: as above; format: cell-based; details: for MIC: 40 h, pH 7, read-out: MIC, Sprotricosis schenckii IFO8158; for Partial Inhibition, Sprotricosis schenckii IFO8158: value in parentheses = Partial Inhibition, Sabouraud dextrose agar (pH 7.0), 28°C for 40 hours
Description: as §1

[9] = system: Fusarium moniliforme A2284; assay: as above; format: cell-based; details: Fusarium verticillioides, A2284; Sabouraud dextrose agar (pH 7.0); 28°C for 40 hours
Description: as §1

[10] = system: Cryptococcus neoformans D49; assay: as above; format: cell-based; details: Cryptococcus neoformans, D49, 40 h, pH 7, read-out: MIC, Cryptococcus neoformans D49
Description: as §1

[11] = system: Candida albicans A9540; assay: as above; format: cell-based; details: Candida albicans, A9540; Sabouraud dextrose agar (pH 7.0); 28°C for 40 hours
Description: as §1

[12] = system: Aspergillus fumigatus IAM2034; assay: as above; format: cell-based; details: Sabouraud dextrose agar (pH 7.0), 28°C for 40 hours; for MIC: Aspergillus fumigatus, IAM2034; for Partial Inhibition, Aspergillus fumigatus IAM2034: value in parentheses = Partial Inhibition
Description: as §1

[13] = system: Candida albicans IAM4888; assay: as above; format: cell-based; details: Candida albicans, IAM4888; Sabouraud dextrose agar (pH 7.0); 28°C for 40 hours
Description: as §1

[14] = system: Cryptococcus neoformans IAM4514; assay: as above; format: cell-based; details: Cryptococcus neoformans, IAM4514; Sabouraud dextrose agar (pH 7.0); 28°C for 40 hours
Description: as §1

[15] = system: Aspergillus fumigatus IAM2530; assay: as above; format: cell-based; details: Aspergillus fumigatus, IAM2530; Sabouraud dextrose agar (pH 7.0); 28°C for 40 hours
Description: as §1

[16] = system: Petriellidium boydii IFO8078; assay: as above; format: cell-based; details: Scedosporium boydii, IFO8078; Sabouraud dextrose agar (pH 7.0); 28°C for 40 hours
Description: as §1

[17] = system: Trichophyton mentagrophytes A26771; assay: In vitro antifungal activity, serial agar dilution method (Table 1a); format: cell-based; details: A26771, YM agar (pH 7.0, Difco), 30°C for 2 days (yeast) or 4 days (filamentous fungi), read-out: MICs, Trichophyton mentagrophytes A26771
Description: (§2) The inoculum size was adjusted to 10⁶ cells/ml, and a volume of approximately 0.003 ml of fungal suspension was applied to the surface of the antibiotic containing agar plates with a multiinoculator. After incubation, the lowest concentration of antibiotic causing virtually complete inhibition of fungal growth was determined as the minimum inhibitory concentration (MIC).

[18] = system: Candida tropicalis A25809; assay: as above; format: cell-based; details: YM agar (pH 7.0, Difco), 30°C for 2 days (yeast) or 4 days (filamentous fungi), read-out: MICs, Candida tropicalis A25809
Description: as §2

[19] = system: Candida paratropicalis A25825; assay: as above; format: cell-based; details: YM agar (pH 7.0, Difco); 30°C for 2 days (yeast) or 4 days (filamentous fungi); read-out: MICs, Candida paratropicalis A25825
Description: as §2

[20] = system: Microsporum canis WW10218; assay: as above; format: cell-based; details: WW10218, pH 7, read-out: MICs, Microsporum canis WW10218
Description: as §2

[21] = system: Candida tropicalis A25812; assay: as above; format: cell-based; details: A25812, YM agar (pH 7.0, Difco), 30°C for 2 days (yeast) or 4 days (filamentous fungi), read-out: MICs, Candida tropicalis A25812
Description: as §2

[22] = system: Microsporum gypseum WW1107; assay: as above; format: cell-based; details: Nannizzia gypsea, YM agar (pH 7.0, Difco), 30°C for 2 days (yeast) or 4 days (filamentous fungi), read-out: MICs, Microsporum gypseum WW1107
Description: as §2

[23] = system: Candida albicans A9540; assay: as above; format: cell-based; details: A9540, YM agar (pH 7.0, Difco), 30°C for 2 days (yeast) or 4 days (filamentous fungi), read-out: MICs, Candida albicans A9540
Description: as §2

[24] = system: Cryptococcus neoformans A15053; assay: as above; format: cell-based; details: A15053, YM agar (pH 7.0, Difco), 30°C for 2 days (yeast) or 4 days (filamentous fungi), read-out: MICs, Cryptococcus neoformans A15053
Description: as §2

[25] = system: Candida pseudotropicalis A25802; assay: as above; format: cell-based; details: Kluyveromyces marxianus, YM agar (pH 7.0, Difco), 30°C for 2 days (yeast) or 4 days (filamentous fungi), read-out: MICs, Candida pseudotropicalis A25802
Description: as §2

[26] = system: Trichophyton rubrum A26761; assay: as above; format: cell-based; details: A26761, pH 7, read-out: MICs, Trichophyton rubrum A26761
Description: as §2

[27] = system: Candida albicans A25578; assay: as above; format: cell-based; details: A25578, YM agar (pH 7.0, Difco), 30°C for 2 days (yeast) or 4 days (filamentous fungi), read-out: MICs, Candida albicans A25578
Description: as §2

[28] = system: Saccharomyces cerevisiae A25803; assay: as above; format: cell-based; details: YM agar (pH 7.0, Difco), 30°C for 2 days (yeast) or 4 days (filamentous fungi), read-out: MICs, Saccharomyces cerevisiae A25803
Description: as §2

[29] = Water solubility, protocol I (PBS, HPLC); format: physicochemical; details: Method I: PBS without CaCl₂ and MgCl₂.6H₂O
Description: The supernatant (2 µL) was analyzed by HPLC using the conditions specified for each compound in the Experimental Section. […] When not soluble, an additional amount of PBS (x µL) was added, sonicated, and centrifuged. When visibly soluble, the solution (2 µL) was injected to HPLC and the peak area was used for the known concentration of the sample.

Row | Compound | solubility at 2 h ([1]; Method II (+): PBS(+)) [mg/mL] | MIC [2] [µg/mL] | PD₅₀ [3] [mg/kg] | MIC [4] [µg/mL] | Partial Inhibition, Mucor spinosus IFO5317 [4] | MIC [5] [µg/mL] | MIC [6] [µg/mL] | MIC [7] [µg/mL] | MIC [8] [µg/mL] | MIC [9] [µg/mL] | MIC [10] [µg/mL] | MIC [11] [µg/mL] | MIC [12] [µg/mL] | MIC [13] [µg/mL] | MIC [14] [µg/mL] | MIC [15] [µg/mL] | solubility at 2 h ([1]; Method II (-): PBS(-)) [mg/mL] | Partial Inhibition, Blastomyces dermatidis D40 [5] [µg/mL] | Partial Inhibition, Sprotricosis schenckii IFO8158 [8] [µg/mL] | Partial Inhibition, Aspergillus fumigatus IAM2034 [12] [µg/mL] | further results
1 | COc1cc(O)c2c(c1)C(=O)c1c(cc3c(c1O)-c1c(cc(C)c(C(=O)N[C@H](C)C(=O)O)c1O)[C@H](O[C@@H]1O[C@H](C)[C@H](N(C)C=O)[C@H](O[C@@H]4OC[C@@H](O)[C@H](O)[C@H]4O)[C@H]1O)[C@H]3O)C2=O [Ex. 9, N-formyl pradimicin A] | > 32 | > 100 | >50 | > 100 | 50.0 µg/mL | 100 (≈ 115 µM) | 25 (≈ 28.8 µM) | 25 (≈ 28.8 µM) | 50 (≈ 57.6 µM) | > 100 | 25 (≈ 28.8 µM) | 25 (≈ 28.8 µM) | 50 (≈ 57.6 µM) | 25 (≈ 28.8 µM) | 12.5 (≈ 14.4 µM) | 50 (≈ 57.6 µM) | – | – | – | – | –
2 | COc1cc(O)c2c(c1)C(=O)c1c(cc3c(c1O)-c1c(cc(C)c(C(=O)N[C@H](C)C(=O)O)c1O)[C@H](O[C@@H]1O[C@H](C)[C@H](N(C)CC(=O)O)[C@H](O[C@@H]4OC[C@@H](O)[C@H](O)[C@H]4O)[C@H]1O)[C@H]3O)C2=O [Ex. 1, N-(carboxymethyl) pradimicin A] | > 31 | > 100 | 45 | > 100 | >100.0 (100.0) µg/ml | > 100 | > 100 | > 100 | > 100 | > 100 | 25 (≈ 27.8 µM) | 50 (≈ 55.6 µM) | > 100 | 50 (≈ 55.6 µM) | 12.5 (≈ 13.9 µM) | 100 (≈ 111 µM) | > 30 | 50.0 | 50.0 | 50.0 | MIC [16]: > 100 µg/mL
3 | COc1cc(O)c2c(c1)C(=O)c1c(cc3c(c1O)-c1c(cc(C)c(C(=O)N[C@H](C)C(=O)O)c1O)[C@H](O[C@@H]1O[C@H](C)[C@H](N(C)C(=O)CN)[C@H](O[C@@H]4OC[C@@H](O)[C@H](O)[C@H]4O)[C@H]1O)[C@H]3O)C2=O [Ex. 10, N-glycyl pradimicin A] | 1 (≈ 1110 µM) | > 100 | 30 | > 100 | – | 12.5 (≈ 13.9 µM) | 12.5 (≈ 13.9 µM) | 12.5 (≈ 13.9 µM) | 12.5 (≈ 13.9 µM) | > 100 | 1.6 (≈ 1.78 µM) | 12.5 (≈ 13.9 µM) | 100 (≈ 111 µM) | 6.3 (≈ 7.02 µM) | 1.6 (≈ 1.78 µM) | 12.5 (≈ 13.9 µM) | – | – | – | – | –
4 | COc1cc(O)c2c(c1)C(=O)c1c(cc3c(c1O)-c1c(cc(C)c(C(=O)N[C@H](C)C(=O)O)c1O)[C@H](O[C@@H]1O[C@H](C)[C@H](N(C)CC(N)=O)[C@H](O[C@@H]4OC[C@@H](O)[C@H](O)[C@H]4O)[C@H]1O)[C@H]3O)C2=O [Ex. 2, N-(carbamoylmethyl) pradimicin A] | – | > 100 | 29 | > 100 | >100.0 (100.0) µg/ml | 25 (≈ 27.8 µM) | > 100 | > 100 | 25 (≈ 27.8 µM) | > 100 | 12.5 (≈ 13.9 µM) | 50 (≈ 55.7 µM) | > 100 | 25 (≈ 27.8 µM) | 3.1 (≈ 3.45 µM) | 12.5 (≈ 13.9 µM) | 11 (≈ 12300 µM) | 12.5 | 12.5 | 50.0 | Partial Inhibition, Asoergukkys flavus FA21436 ([2]; value in parentheses = Partial Inhibition, Sabouraud dextrose agar (pH 7.0), 28°C for 40 hours): 50.0 µg/mL; MIC [16]: > 100 µg/mL
5 | COc1cc(O)c2c(c1)C(=O)c1c(cc3c(c1O)-c1c(cc(C)c(C(=O)N[C@H](C)C(=O)O)c1O)[C@H](O[C@@H]1O[C@H](C)[C@H](N(C)C(=O)CN(C)C)[C@H](O)[C@H]1O)[C@H]3O)C2=O [Ex. 15, N-(N,N-dimethylglycyl) pradimicin B] | – | – | – | – | – | – | – | – | – | – | – | – | – | – | – | – | – | – | – | – | MIC [17]: 12.5 µg/mL (≈ 15.7 µM); MIC [18]: 3.2 µg/mL (≈ 4.03 µM); MIC [19]: 6.3 µg/mL (≈ 7.94 µM); MIC [20]: 6.4 µg/mL (≈ 8.06 µM); MIC [21]: 6.3 µg/mL (≈ 7.94 µM); MIC [22]: 12.5 µg/mL (≈ 15.7 µM); MIC [23]: 6.3 µg/mL (≈ 7.94 µM); MIC [24]: 3.2 µg/mL (≈ 4.03 µM); MIC [25]: 1.6 µg/mL (≈ 2.02 µM); MIC [26]: 2.5 µg/mL (≈ 3.15 µM); MIC [27]: 3.2 µg/mL (≈ 4.03 µM); MIC [28]: 3.2 µg/mL (≈ 4.03 µM); solubility [29]: 2 mg/mL (≈ 2520 µM)
